{"source": "patent US11433092B2", "about": "“Compositions and methods of use for wound healing” (SYNEDGEN, INC., priority 2013, dated 2022)", "system": "Methicillin Resistant Staphylococcus aureus (NRS 384/USA 300)", "assay": "Deep partial thickness biofilm prevention porcine wound model, MRSA", "type": "in vivo", "procedure": "The animals were prepared as described (above). Ninety-six (96) rectangular wounds measuring 10 mm×7 mm×0.5 mm deep were made in the paravertebral and thoracic area with a specialized electrokeratome fitted with a 7 mm blade. The wounds were separated from one another by 15 mm of unwounded skin and individually dressed. The wounds were then inoculated and treated. A fresh culture of Acinetobacter baumannii ATCC 19606 or Methicillin Resistant Staphylococcus aureus (NRS 384/USA 300) was used in these studies. The challenge inoculum suspension was prepared by scraping the overnight growth from a culture plate into 5 ml of normal saline. […] Serial dilutions were made until a concentration of 10^6 CFU/ml was achieved. […] In addition, serial dilutions of the suspension were plated onto selective media and the plates were incubated aerobically overnight (16-24 hours) at 37° C., in order to quantify the exact concentration of viable organisms used for this experiment. […]\nTwelve (12) wounds were recovered from each treatment group on each assessment day (days 3 and 4). […] Serial dilutions were made from all culture samples, and the extent of microbiological contamination was assessed using the Spiral Plater System (Spiral Biotech, Norwood, Mass.). […] All plates were incubated aerobically overnight 24 hours at 37° C., after which time the number of viable colonies were counted.", "data": [{"smiles": "C/C(=C\\C(=O)OCCCCCCCCC(=O)O)C[C@@H]1OC[C@H](C[C@@H]2O[C@H]2[C@@H](C)[C@H](C)O)[C@@H](O)[C@H]1O", "note": "[mupirocin]", "values": [{"measurement": "biofilm infection at day 3 compared to day 4 (MRSA)", "setting": "across treatment days", "result": "significant reduction in biofilm infection"}, {"measurement": "biofilm infection (MRSA)", "setting": "days 3 and 4", "result": "significantly reduced biofilm infection"}]}]}
